Values quoted from earlier work as cited in US11576952B2, “Injectable solution at pH 7 comprising at least one basal insulin for which the pI is from 5.8 to 8.5 and a co-polyamino acid bearing carboxylate charges and hydrophobic radicals” (ADOCIA, priority 2017, dated 2023).

Details: background description

## insulin glargine
  Period over which the blood sugar lowering effect is quasi-constant: 24 h
